Results from patent publication US8877707B2, “Inhibitors of HCV NS5A” (Presidio Pharmaceuticals, Inc., priority 2010, dated 2014).

test system: HCV genotype 1b replicon in Huh 7 cells; assay: HCV replicon assay (1b_Huh-Luc/Neo-ET cell line, luciferase readout); assay type: cell-based; settings: Hepatitis C virus, Huh-7; HCV 1b replicon; read-out: Inhibition of HCV genotype 1b
Protocol: Biological activity of the compounds of the invention was determined using an HCV replicon assay. The 1b_Huh-Luc/Neo-ET cell line persistently expressing a bicistronic genotype 1b replicon in Huh 7 cells was obtained from ReBLikon GMBH. This cell line was used to test compound inhibition using luciferase enzyme activity readout as a measurement of compound inhibition of replicon levels.
On Day 1 (the day after plating), each compound is added in triplicate to the cells. Plates incubated for 72 h prior to running the luciferase assay. Enzyme activity was measured using a Bright-Glo Kit (cat. number E2620) manufactured by Promega Corporation. The following equation was used to generate a percent control value for each compound. % Control=(Average Compound Value/Average Control)*100
The EC50 value was determined using GraphPad Prism and the following equation: Y=Bottom+(Top−Bottom)/(1+10^((Log IC50−X)*HillSlope))
EC50 values of compounds are repeated several times in the replicon assay.

With COC(=O)N[C@H](C(=O)N1CCC[C@H]1c1ncc(-c2ccc3nc(-c4ccc(-c5cnc([C@@H]6CCCN6C(=O)[C@H](NC(=O)OC)c6ccccc6)[nH]5)cc4)ccc3c2)[nH]1)[C@@H](C)OC [compound 489] as the compound, how does the EC50 read?
The EC50 was < 1 nM.

Which EC50 does the source give for COC(=O)N[C@H](C(=O)N1CCC[C@H]1c1ncc(-c2ccc3cc(-c4ccc(-c5cnc([C@@H]6CCCN6C(=O)[C@H](NC(=O)OC)c6ccsc6)[nH]5)cc4)ccc3c2)[nH]1)[C@@H](C)O [compound 478] here?
Its EC50 is < 1 nM.

For C=CC[C@H](NC(=O)OC)C(=O)N1CCC[C@H]1c1ncc(-c2ccc3nc(-c4ccc(-c5cnc([C@@H]6CCCN6C(=O)[C@H](NC(=O)OC)c6ccccc6)[nH]5)cc4F)ccc3c2)[nH]1 [compound 486], which EC50 is on record?
Its EC50 is < 1 nM.

same assay, conditions: Hepatitis C virus; Table 1; genotype 1b replicon, Huh 7 cells, 72 h, luciferase; read-out: Inhibition of HCV genotype 1b

Which EC50 does the source give for COC(=O)N[C@H](C(=O)N1CCC[C@H]1c1nc(-c2ccc3cc(-c4ccc(-c5cnc([C@@H]6CCCN6C(=O)[C@H](NC(=O)OC)c6ccccc6)[nH]5)cn4)ccc3c2)c[nH]1)C(C)C [compound 56] here?
Its EC50 is < 1 nM.

How did the EC50 turn out when COC(=O)N[C@H](C(=O)N1CCC[C@H]1c1nc2c([nH]1)-c1ccc(-c3ccc4cc(-c5cnc([C@@H]6CCCN6C(=O)[C@H](NC(=O)OC6CCOCC6)c6ccccc6)[nH]5)ccc4n3)cc1CC2)C(C)C [295-1] was run?
Its EC50 is < 1 nM.

With COC(=O)N[C@H](C(=O)N1CCC[C@H]1c1nc(-c2ccc3nc(-c4ccc(-c5cnc([C@@H]6CCCN6C(=O)[C@H](NC(=O)OC)c6ccccc6)[nH]5)cc4)ccc3c2)c[nH]1)C(C)C [compound 26] as the compound, how does the EC50 read?
The EC50 was < 1 nM.

For COC(=O)N[C@H](C(=O)N1CCC[C@H]1c1ncc(-c2ccc(-c3nc4ccc(-c5cnc([C@@H]6CCCN6C(=O)[C@@H](NC(=O)OC)[C@@H](C)OC)[nH]5)cc4o3)cc2)[nH]1)C(C)C [compound 253], which EC50 is on record?
Its EC50 is < 1 nM.

COC(=O)N[C@H](C(=O)N1CCC[C@H]1c1ncc(-c2ccc3cc(-c4ccc5nc([C@@H]6CCCN6C(=O)[C@@H](NC(=O)OC)C(C)C)[nH]c5c4)ncc3c2)[nH]1)C(C)C [compound 204] was tested. Which EC50 did it give?
The EC50 was < 1 nM.

COC(=O)N[C@@H](C(=O)N1CCCC[C@H]1c1ncc(-c2ccc(-c3nc4ccc(-c5cnc([C@@H]6CCCCN6C(=O)[C@H](NC(=O)OC)c6ccccc6)[nH]5)cc4s3)cc2)[nH]1)c1ccccc1 [compound 248] was tested. Which EC50 did it give?
Its EC50 is < 1 nM.

For COC(=O)N[C@H](C(=O)N1CCC[C@H]1c1ncc(-c2ccc(-c3nc4cc(-c5cnc([C@@H]6CCCN6C(=O)[C@@H](NC(=O)OC)C(C)C)[nH]5)ccc4s3)cc2)[nH]1)C(C)C [compound 240], which EC50 is on record?
Its EC50 is < 1 nM.

Which EC50 does the source give for COC(=O)N[C@H](C(=O)N1CCC[C@H]1c1nc(-c2ccc3cc(-c4ccc(-c5cnc([C@@H]6CCCN6C(=O)[C@H](NC(=O)NC(C)(C)C)c6ccccc6)[nH]5)cc4)ccc3c2)c[nH]1)C(C)C [compound 25] here?
The EC50 was < 1 nM.

How did the EC50 turn out when COC(=O)N[C@H](C(=O)N1CCC[C@H]1c1ncc(-c2ccc3nc(-c4ccc(-c5cnc([C@@H]6CCCN6C(=O)[C@H](NC(=O)OC(C)(C)C)c6ccccc6)[nH]5)cc4F)ccc3c2)[nH]1)C1CCOCC1 [compound 135] was run?
The EC50 was < 1 nM.

How did the EC50 turn out when COC(=O)N[C@H](C(=O)N1CCC[C@H]1c1ncc(-c2ccc3cc(-c4ccc(-c5cnc([C@@H]6CCCN6C(=O)[C@H](NC(=O)OC6CCOCC6)c6ccccc6)[nH]5)cc4)ncc3c2)[nH]1)C1CCOCC1 [compound 117] was run?
The EC50 was < 1 nM.

CNC(=O)N[C@@H](C(=O)N1CCC[C@H]1c1ncc(-c2ccc3nc(-c4ccc(-c5cnc([C@@H]6CCCN6C(=O)[C@@H](NC(=O)OC)C(C)C)[nH]5)cc4)oc3c2)[nH]1)c1ccccc1 [compound 251] was tested. Which EC50 did it give?
Its EC50 is < 1 nM.

same assay, conditions: Hepatitis C virus; Table 2; genotype 1b replicon, Huh 7 cells, 72 h, luciferase; read-out: Inhibition of HCV genotype 1b

With COC(=O)N[C@H](C(=O)N1CCC[C@H]1c1ncc(-c2ccc3cc(-c4ccc5nc([C@@H]6COCCN6C(=O)[C@@H](NC(=O)OC)C6CCCCC6)[nH]c5c4)ccc3c2)[nH]1)C1CCCCC1 [compound 361] as the compound, how does the EC50 read?
Its EC50 is < 1 nM.

For COC(=O)N[C@@H](C)C(=O)N1CCOC[C@H]1c1ncc(-c2ccc3cc(-c4ccc(-c5cnc([C@@H]6CCCN6C(=O)[C@H](NC(=O)OC)c6ccccc6)[nH]5)cc4)ccc3c2)[nH]1 [compound 326], which EC50 is on record?
Its EC50 is < 1 nM.
